Measured values from patent US11591365B2, “BCL9 peptides and variants thereof” (WntRx Pharmaceuticals Inc., priority 2017, dated 2023).
Where a SMILES comes first, the peptide text is derived from it. Bridges are numbered along the chain shown (N, C = ends). [ ]: non-standard residue; d: D form. 2Nal = N[C@@H](Cc1ccc2ccccc2c1)C(=O)O; S5 = C=CCCC[C@](C)(N)C(=O)O

System: Colo320DM
Assay: Colo320DM cell viability
Assay type: cell-based, human
Text: In some embodiments, a polypeptide described herein inhibits binding of BLC9 to β-catenin when assessed in a cell-viability assay. In some embodiments, the cell-viability assay is a CellTiterGlo luminescent assay, wherein the viability of cells is quantitatively measured. Various cell lines, transformed cell lines or primary cells derived from a healthy subject or subject suffering from a disease can be used in this assay.

IC50 [µM]	Structure (SMILES)
3.07	CC[C@H](C)[C@@H]1NC(=O)[C@@](C)(NC(=O)[C@H](CCCNC(=N)N)NC(=O)[C@H](CC(C)C)NC(=O)[C@@H](NC(=O)[C@H](CCC(N)=O)N(C)C(=O)[C@H](CC(C)C)NC(C)=O)[C@@H](C)O)CCCC=CCCC[C@@](C)(C(=O)N[C@@H](CC2CCC2)C(=O)N[C@@H](Cc2ccc3ccccc3c2)C(=O)NCCC(=O)NCCC(N)=O)NC(=O)[C@H](CCCNC(=N)N)NC(=O)[C@H](CCC(N)=O)NC1=O (single isomer, unassigned) [SEQ ID NO: 111, L(N-methylQ)TLRXIQRX(CBA)(2-Nal)(β-Ala)(β-Ala)]
3.32	CC[C@H](C)[C@@H]1NC(=O)[C@@](C)(NC(=O)[C@H](CCCNC(=N)N)NC(=O)[C@H](CC(C)C)NC(=O)[C@@H](NC(=O)[C@H](CCC(N)=O)NC(=O)[C@H](CC(C)C)NC(=O)[C@H](CO)NC(=O)[C@H](CCCNC(=N)N)NC(=O)[C@H](CCC(N)=O)NC(=O)[C@H](CCCNC(=N)N)N(C)C(=O)[C@H](Cc2c[nH]cn2)NC(C)=O)[C@@H](C)O)CCCC=CCCC[C@@](C)(C(=O)N[C@@H](CC2CCC2)C(=O)N[C@@H](Cc2ccc3ccccc3c2)C(N)=O)NC(=O)[C@H](CCCNC(=N)N)NC(=O)[C@H](CCC(N)=O)NC1=O (single isomer, unassigned) [SEQ ID NO: 158, H(R-Me)QRSLQTLRXIQRX(CBA)(2-Nal)]
4.17	CC[C@H](C)[C@@H]1NC(=O)[C@@](C)(NC(=O)[C@H](CCCNC(=N)N)NC(=O)[C@H](CC(C)C)NC(=O)[C@@H](NC(=O)[C@H](CCC(N)=O)NC(=O)[C@H](CC(C)C)NC(=O)[C@H](CO)NC(=O)[C@H](CCCNC(=N)N)NC(=O)[C@H](CCC(N)=O)NC(=O)[C@H](CCCNC(=N)N)N(C)C(=O)[C@H](Cc2c[nH]cn2)NC(C)=O)[C@@H](C)O)CCCC=CCCC[C@@](C)(C(=O)N[C@@H](CC2CCC2)C(=O)N[C@@H](Cc2ccc3ccccc3c2)C(N)=O)NC(=O)[C@H](CCCNC(=N)N)NC(=O)[C@H](CCC(N)=O)NC1=O (single isomer, unassigned) [SEQ ID NO: 166, H(N-methylR)QRSLQTLRXIQRX(CBA)(2-Nal)]
4.68	CC[C@H](C)[C@@H]1NC(=O)[C@@](C)(NC(=O)[C@H](CCCNC(=N)N)NC(=O)[C@H](CC(C)C)NC(=O)[C@@H](NC(=O)[C@H](CCC(N)=O)NC(=O)[C@H](CC(C)C)NC(=O)[C@H](CO)NC(=O)[C@H](CCCNC(=N)N)NC(=O)[C@H](CCC(N)=O)NC(=O)[C@H](CCCNC(=N)N)NC(=O)[C@H](Cc2c[nH]cn2)NC(C)=O)[C@@H](C)O)CCCC=CCCC[C@@](C)(C(=O)N[C@@H](Cc2ccc(Cl)cc2)C(=O)N[C@@H](Cc2ccc3ccccc3c2)C(N)=O)NC(=O)[C@H](CCCNC(=N)N)NC(=O)[C@H](CCC(N)=O)NC1=O (single isomer, unassigned) [SEQ ID NO: 179, HRQRSLQTLRXIQRX(Phe-4-Cl)(2-Nal)]
6.8	CC[C@H](C)[C@@H]1NC(=O)[C@@](C)(NC(=O)[C@H](CCCNC(=N)N)NC(=O)[C@H](CC(C)C)NC(=O)[C@@H](NC(=O)[C@H](CCC(N)=O)NC(=O)[C@H](CC(C)C)NC(=O)[C@H](CO)NC(=O)[C@H](CCCNC(=N)N)NC(=O)[C@H](CCC(=O)O)NC(=O)[C@H](CCCNC(=N)N)NC(C)=O)[C@@H](C)O)CCCC=CCCC[C@@](C)(C(=O)N[C@@H](CC(C)C)C(=O)N[C@@H](Cc2ccc3ccccc3c2)C(N)=O)NC(=O)[C@H](CCCNC(=N)N)NC(=O)[C@H](CCC(N)=O)NC1=O [SEQ ID NO: 5, RERSLQTLRXIQRXL(2-Nal)] (Ac-RERSLQTLR[S5]IQR[S5]L[2Nal]-NH2; staple 10-14)
